From patent publication US10336757B2, “Treatment of neurodegenerative diseases through inhibition of HSP90” (Sloan-Kettering Institute for Cancer Research, priority 2006, dated 2019)
Read-outs that look alike come from different tables or passages of the source.

Columns and labels:
[1] = tested on: p35; test: p35, Tau phosphorylation and Hsp70 in primary rat cortical neurons and COS-7/p35, COS-7/p35/Tau cells; assay type: cell-based; details: compared with PU24FC1
From the text: Embryonic primary rat cortical neurons and COS-7 cells transfected with cDNAs corresponding to either p35 alone (COS-7/p35) or both p35 and Tau (COS-7/p35/Tau) are relevant experimental systems to study aberrant neuronal kinase activity because phosphorylation of Tau at putative cdk5 sites is both enhanced in these cells and in embryonic and juvenile brains (50, 52) and is similar to that in AD-afflicted brains (50). […]
To further examine the roles played by Hsp90 in tauopathy, we made use of both PU24FC1 and 17-(allyllamino)-17-demethoxygeldanamycin (17AAG) and investigated their effects on both cdk5/p35 and TauP301L in primary neuronal and COS-7 cell cultures. […] After incubation, cells were harvested and lysed in 2% SDS, and the resulting samples were analyzed by Western blotting.
We detected a dose- and time-dependent degradation of p35 by PU24FC1 in primary neurons, as well as in COS-7/p35 and COS-7/p35/Tau cells. […] Reduction of p35 levels by Hsp90 inhibition affected the activity of the cdk5/p35 complex, as measured using a substrate of cdk5, the histone-H1.

[2] = molecular target: P-glycoprotein (Homo sapiens (Human), UniProt P08183); details: known Hsp90 inhibitor, cited from earlier work
[3] = known Hsp90 inhibitors, cited from earlier work
[4] = cited from earlier work
[5] = tested on: tau phosphorylation at pathological sites; test: Tau phosphorylation in AD cellular models; assay type: cell-based

P-glycoprotein, sequence (P08183 whole entry): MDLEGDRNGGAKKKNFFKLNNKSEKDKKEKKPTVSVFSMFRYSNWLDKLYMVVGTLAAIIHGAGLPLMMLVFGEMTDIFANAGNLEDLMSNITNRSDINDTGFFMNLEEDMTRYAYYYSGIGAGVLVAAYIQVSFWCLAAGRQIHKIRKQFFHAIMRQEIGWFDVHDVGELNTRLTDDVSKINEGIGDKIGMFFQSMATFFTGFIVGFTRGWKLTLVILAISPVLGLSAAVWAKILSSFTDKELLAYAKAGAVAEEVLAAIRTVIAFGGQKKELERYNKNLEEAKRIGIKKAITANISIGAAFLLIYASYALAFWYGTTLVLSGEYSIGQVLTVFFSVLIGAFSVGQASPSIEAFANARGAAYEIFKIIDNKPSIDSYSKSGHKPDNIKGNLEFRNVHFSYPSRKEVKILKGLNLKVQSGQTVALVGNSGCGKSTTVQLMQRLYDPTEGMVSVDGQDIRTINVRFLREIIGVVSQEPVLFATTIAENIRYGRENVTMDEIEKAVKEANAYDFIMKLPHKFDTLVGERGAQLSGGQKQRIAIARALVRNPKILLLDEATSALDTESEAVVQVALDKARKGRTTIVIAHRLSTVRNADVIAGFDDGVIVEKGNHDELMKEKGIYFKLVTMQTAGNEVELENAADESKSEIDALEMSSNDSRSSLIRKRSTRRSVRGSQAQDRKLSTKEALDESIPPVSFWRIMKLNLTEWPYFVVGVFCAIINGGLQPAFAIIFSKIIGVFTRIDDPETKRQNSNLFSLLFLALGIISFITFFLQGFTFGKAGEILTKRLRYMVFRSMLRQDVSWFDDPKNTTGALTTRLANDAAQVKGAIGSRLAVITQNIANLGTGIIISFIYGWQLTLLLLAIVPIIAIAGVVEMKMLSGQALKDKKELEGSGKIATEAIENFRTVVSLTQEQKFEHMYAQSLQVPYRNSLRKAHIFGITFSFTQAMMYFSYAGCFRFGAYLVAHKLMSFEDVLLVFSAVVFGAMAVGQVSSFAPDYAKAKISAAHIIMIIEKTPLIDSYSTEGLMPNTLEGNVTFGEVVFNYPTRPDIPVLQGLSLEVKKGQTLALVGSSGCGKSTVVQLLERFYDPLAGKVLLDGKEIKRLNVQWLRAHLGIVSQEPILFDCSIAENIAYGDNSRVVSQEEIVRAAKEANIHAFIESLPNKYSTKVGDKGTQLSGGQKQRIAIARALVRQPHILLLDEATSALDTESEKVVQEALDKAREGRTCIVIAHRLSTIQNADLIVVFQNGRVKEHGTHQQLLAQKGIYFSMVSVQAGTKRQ

SMILES | effects on p35 and mTau [1] | P-gp substrate [2] | P-gp substrate ([2]; listed as 17-AAG) | crossing of the blood-brain barrier [3] | crossing of the blood-brain barrier ([3]; listed as 17-AAG) | solubility [4] | tau phosphorylation levels at pathological sites [5]
C=CCNC1=C2C[C@@H](C)C[C@H](OC)[C@H](O)[C@@H](C)/C=C(\C)[C@H](OC(N)=O)[C@@H](OC)/C=C\C=C(/C)C(=O)NC(=CC1=O)C2=O [Compound 17AAG, 17-(allyllamino)-17-demethoxygeldanamycin] | Analogous effects | P-gp substrate | P-glycoprotein substrate | do not cross the blood-brain barrier | does not effectively cross the blood brain barrier | poorly soluble | 
COC1=C2C[C@@H](C)C[C@H](OC)[C@H](O)[C@@H](C)/C=C(\C)[C@H](OC(N)=O)[C@@H](OC)/C=C\C=C(/C)C(=O)NC(=CC1=O)C2=O [geldanamycin] |  |  |  | do not cross the blood-brain barrier |  | poorly soluble | reduced
C[C@@H]1C[C@H]2O[C@@H]2/C=C\C=C\C(=O)Cc2c(Cl)c(O)cc(O)c2C(=O)O1 [radicicol] |  |  |  | do not cross the blood-brain barrier |  | poorly soluble | 
